Experimental data as given in patent US20170281507A1, “Peptides and Their Use in the Treatment of Skin” (AVON PRODUCTS, INC., priority 2014, published 2017).
Peptide text beside a SMILES is read from it.

Test system: Human dermal fibroblast cells
Experiment: Hyaluronic acid (HA) production in human dermal fibroblast cells, HA ELISA of the media
Assay type: cell-based
Conditions: percent change of HA production relative to vehicle control, peptide concentration 0.001%, 48h treatment in DMEM media without FBS, secreted HA in media
Description: Human dermal fibroblast cells were grown in a 96 well plate in DMEM media (available from Corning, N.Y.) supplemented with 10% Fetal Bovine Serum (FBS) and L-glutamine (0.07×10^5 cells/plate). After reaching about 75% confluence, cells were transferred into DMEM media without FBS and incubated for 4-6 hours. Next, cells were treated with peptide of Formula I at 0.00001%, 0.0001%, 0.001% final concentration in DMEM media without FBS for 48h. After treatment the media were collected, and cell viability was measured using MTT. Amount of secreted Hyaluronic Acid (HA) was tested in the media using HA Elisa kit (available from Corgenix, Broomfield, Colo.).
Results are summarized in Table 1 below as percent change of HA production relative to vehicle control: […]

CC(N)C(=O)NC(CCC(=O)O)C(=O)NC(CS)C(=O)NC(CCCCN)C(=O)O (stereo not drawn) [AECK (SEQ ID NO: 1), Ala-Glu-Cys-Lys] (H-AECK-OH; configuration not given here)
Increase in HA Production: +90-150% | Increase in HA Production (listed as peptide of Formula I): 90-150%
